{"source": "patent US20240424051A1", "about": "“COMPOSITION FOR TREATING […] OS[…] MECHANISM PROMOTING FORMATION OF MUSCLE FIBERS OR INHIBITING OSTEOCLASTOGENESIS, […]-L-PHENYLALANYL-L-PROLINE DIPEPTIDES” (CELLBION CO., LTD, priority 2021, published 2024)", "key": {"muscle mass of mice": {"system": "muscle mass of mice", "test": "Muscle collection and weighing after oral gavage of cFP", "assay_type": "in vivo, mouse", "settings": "male C57BL/6J mice, oral gavage every 24 hours, compared to the control group, FIG. 3", "procedure": "According to an embodiment of the present invention, the increase in muscle weight and bone mass by oral administration of cyclo-L-phenylalanyl-L-proline (cFP) was measured. Muscle weight was measured by separating the muscles of the mouse according to anatomical muscle classification. In addition, trabecular bone analysis on the femur of the mouse was performed using high-resolution micro-CT (SMX-90CT system). Based on the growth plate of the femur, the lower part of the 1 mm was the starting point of the analysis, and the analysis was conducted from the starting point to 1.5 mm below the bone. Each indicator means as follows. bone volume/total bone volume (BV/TV, %), bone surface/trabecular bone volume (BS/BV, 1/mm), trabecular thickness (Tb. Th, mm), trabecular number (Tb.N, 1/mm), trabecular separation (Tb. Sp, mm).\nAnimal studies were conducted in accordance with the guidelines for animal research. All experimental procedures were approved by the Animal Care and Use Committee of Seoul National University Animal Hospital. Male C57BL/6J mice at 4 or 6 weeks of age were purchased from Orient Bio Inc. (Seongnam, Korea) and housed in a specific pathogen-free (SPF) animal facility with controlled temperature (22° C.), humidity (55%), and a 12-hour light-dark cycle. All animals were provided with a free feeding and drinking system. […]"}, "[1]": {"system": "trabecular bone of mouse femur", "test": "Micro-CT analysis of trabecular bone of femur after free drinking of cFP", "assay_type": "in vivo", "settings": "cFP in drinking water (free drinking), FIG. 4"}, "myoblasts": {"system": "myoblasts", "test": "Differentiation of myoblasts and LADD staining (muscle fiber formation experiment)", "assay_type": "cell-based", "settings": "mouse myoblasts, LADD staining, compared to vehicle, FIG. 1", "from_the_text": "Muscle growth is due to the formation of muscle fibers according to the binding between individual myoblasts. Therefore, the improvement of muscle growth can be estimated through the degree of muscle fiber formation in the environment that induced the binding of myoblasts. Accordingly, myoblasts were isolated from the muscle tissue of a subject and cultured, and whether muscle fibers were formed using the isolated myoblasts was observed.\nThe formation of muscle fibers can be evaluated by measuring the number of myoblasts that form muscle fibers and the thickness of the formed muscle fibers. To this end, a high-magnification optical microscope was used to identify the nucleus in the muscle fiber through muscle fiber staining. The thickness of the muscle fiber was also measured.\nThe muscle tissue was minced with a scalpel for 5 minutes. The minced muscle solution was incubated at 37° C. for 60 minutes and then centrifuged at 1500 rpm for 5 minutes. The obtained cells were suspended in Ham's F-10 medium containing 20% heat-inactivated horse serum and 50 units/ml of penicillin in the presence of basic FGF (2.5 ng/ml), and then plated on a cell culture dish for 1 hour without gelatin coating. After 1 hour, the suspended cells were transferred to a secondary cell culture dish without gelatin coating and cultured for 1 hour. […]"}}}
{"smiles": "O=C1NC(Cc2ccccc2)C(=O)N2CCCC12", "note": "[cFP, cyclo-L-phenylalanyl-L-proline]", "values": [{"measurement": "muscle mass of the mice", "setting": "muscle mass of mice", "result": "increased"}, {"measurement": "BV/TV (bone volume/total bone volume)", "setting": "[1]", "result": "significantly high"}, {"measurement": "Tb. N (trabecular number)", "setting": "[1]", "result": "significantly high"}, {"measurement": "Tb. Th (trabecular thickness)", "setting": "[1]", "result": "significantly high"}, {"measurement": "fusion of myoblasts (muscle fiber formation; diameter of myotube and number of nuclei of myotube)", "setting": "myoblasts", "result": "promoted the fusion of myoblasts"}]}
